According to the NIST ThermoML archive (doi:10.1016/j.jct.2014.02.016):
± gives the expanded uncertainty stated by the source.

Assays:
[1] = refractive index (other wavelength) (dimensionless); xn = mol fraction of the nth substance listed; conditions: 100 kPa, Liquid, Wavelength=632.8 nm, Angle minimization by sell rotation
[2] = heat capacity at constant pressure per volume; xn = mol fraction of the nth substance listed; conditions: 100 kPa, Liquid, DSC Calorimetry, x1 = 0.244

CCCCCCCCCCCCC [tridecane] + COC(=O)OC
refractive index ([1]; 293.35 K, x1 = 0.073): 1.3756 ± 0.0003 | refractive index ([1]; 293.35 K, x1 = 0.57): 1.4085 ± 0.0003 | refractive index ([1]; 294.57 K, x1 = 0.078): 1.3756 ± 0.0003 | refractive index ([1]; 294.57 K, x1 = 0.553): 1.4072 ± 0.0003 | refractive index ([1]; 295.8 K, x1 = 0.084): 1.3756 ± 0.0003 | refractive index ([1]; 295.8 K, x1 = 0.532): 1.4057 ± 0.0003 | refractive index ([1]; 296.97 K, x1 = 0.091): 1.3757 ± 0.0003 | refractive index ([1]; 296.97 K, x1 = 0.511): 1.4042 ± 0.0003 | refractive index ([1]; 298.06 K, x1 = 0.099): 1.376 ± 0.0003 | refractive index ([1]; 298.06 K, x1 = 0.492): 1.4028 ± 0.0003 | refractive index ([1]; 299.12 K, x1 = 0.108): 1.3764 ± 0.0003 | refractive index ([1]; 299.12 K, x1 = 0.467): 1.4011 ± 0.0003 | refractive index ([1]; 299.84 K, x1 = 0.115): 1.3767 ± 0.0003 | refractive index ([1]; 299.84 K, x1 = 0.452): 1.4 ± 0.0003 | refractive index ([1]; 300.52 K, x1 = 0.124): 1.3772 ± 0.0003 | refractive index ([1]; 300.52 K, x1 = 0.432): 1.3987 ± 0.0003 | refractive index ([1]; 301.09 K, x1 = 0.132): 1.3777 ± 0.0003 | refractive index ([1]; 301.09 K, x1 = 0.415): 1.3975 ± 0.0003 | refractive index ([1]; 301.5 K, x1 = 0.141): 1.3783 ± 0.0003 | refractive index ([1]; 301.5 K, x1 = 0.398): 1.3964 ± 0.0003 | refractive index ([1]; 301.8 K, x1 = 0.147): 1.3787 ± 0.0003 | refractive index ([1]; 301.8 K, x1 = 0.386): 1.3956 ± 0.0003 | refractive index ([1]; 302.21 K, x1 = 0.158): 1.3795 ± 0.0003 | refractive index ([1]; 302.21 K, x1 = 0.365): 1.3942 ± 0.0003 | refractive index ([1]; 302.36 K, x1 = 0.165): 1.38 ± 0.0003 | refractive index ([1]; 302.36 K, x1 = 0.356): 1.3936 ± 0.0003 | refractive index ([1]; 302.48 K, x1 = 0.17): 1.3804 ± 0.0003 | refractive index ([1]; 302.48 K, x1 = 0.348): 1.3931 ± 0.0004 | refractive index ([1]; 302.56 K, x1 = 0.176): 1.3808 ± 0.0003 | refractive index ([1]; 302.56 K, x1 = 0.341): 1.3926 ± 0.0003 | refractive index ([1]; 302.63 K, x1 = 0.18): 1.3811 ± 0.0003 | refractive index ([1]; 302.63 K, x1 = 0.335): 1.3922 ± 0.0003 | refractive index ([1]; 302.7 K, x1 = 0.184): 1.3814 ± 0.0003 | refractive index ([1]; 302.7 K, x1 = 0.329): 1.3918 ± 0.0003 | refractive index ([1]; 302.79 K, x1 = 0.191): 1.382 ± 0.0003 | refractive index ([1]; 302.79 K, x1 = 0.317): 1.391 ± 0.0003 | refractive index ([1]; 302.83 K, x1 = 0.195): 1.3823 ± 0.0003 | refractive index ([1]; 302.83 K, x1 = 0.311): 1.3906 ± 0.0003 | refractive index ([1]; 302.86 K, x1 = 0.202): 1.3828 ± 0.0003 | refractive index ([1]; 302.86 K, x1 = 0.303): 1.3901 ± 0.0003 | refractive index ([1]; 302.89 K, x1 = 0.206): 1.3831 ± 0.0003 | refractive index ([1]; 302.89 K, x1 = 0.297): 1.3897 ± 0.0003 | refractive index ([1]; 302.91 K, x1 = 0.211): 1.3835 ± 0.0003 | refractive index ([1]; 302.91 K, x1 = 0.291): 1.3893 ± 0.0003 | refractive index ([1]; 302.92 K, x1 = 0.214): 1.3837 ± 0.0003 | refractive index ([1]; 302.92 K, x1 = 0.289): 1.3891 ± 0.0003 | refractive index ([1]; 302.93 K, x1 = 0.218): 1.384 ± 0.0003 | refractive index ([1]; 302.93 K, x1 = 0.284): 1.3888 ± 0.0003 | refractive index ([1]; 302.94 K, x1 = 0.223): 1.3844 ± 0.0003 | refractive index ([1]; 302.94 K, x1 = 0.226): 1.3846 ± 0.0003 | refractive index ([1]; 302.94 K, x1 = 0.275): 1.3882 ± 0.0003 | refractive index ([1]; 302.94 K, x1 = 0.278): 1.3884 ± 0.0003 | refractive index ([1]; 304.39 K, x1 = 0.097): 1.3728 ± 0.0003 | refractive index ([1]; 304.39 K, x1 = 0.196): 1.3818 ± 0.0003 | refractive index ([1]; 304.39 K, x1 = 0.297): 1.389 ± 0.0003 | refractive index ([1]; 304.39 K, x1 = 0.401): 1.3953 ± 0.0003 | refractive index ([1]; 304.39 K, x1 = 0.497): 1.4002 ± 0.0003 | refractive index ([1]; 304.39 K, x1 = 0.583): 1.404 ± 0.0003 | refractive index ([1]; 304.39 K, x1 = 0.71): 1.4094 ± 0.0003 | refractive index ([1]; 304.39 K, x1 = 0.795): 1.4126 ± 0.0003 | refractive index ([1]; 304.39 K, x1 = 0.899): 1.4163 ± 0.0003 | heat capacity ([2]; 303.5 K): 2056000 ± 110000 J/K/m3 | heat capacity ([2]; 303.6 K): 2019000 ± 110000 J/K/m3 | heat capacity ([2]; 303.7 K): 1992000 ± 110000 J/K/m3 | heat capacity ([2]; 303.8 K): 1969000 ± 100000 J/K/m3 | heat capacity ([2]; 303.9 K): 1958000 ± 100000 J/K/m3 | heat capacity ([2]; 304 K): 1946000 ± 100000 J/K/m3 | heat capacity ([2]; 304.2 K): 1942000 ± 100000 J/K/m3 | heat capacity ([2]; 304.6 K): 1920000 ± 100000 J/K/m3 | heat capacity ([2]; 305 K): 1910000 ± 100000 J/K/m3 | heat capacity ([2]; 306 K): 1891000 ± 100000 J/K/m3 | heat capacity ([2]; 307 K): 1874000 ± 100000 J/K/m3 | heat capacity ([2]; 308 K): 1870000 ± 100000 J/K/m3 | heat capacity ([2]; 309 K): 1860000 ± 99000 J/K/m3 | heat capacity ([2]; 310 K): 1850000 ± 99000 J/K/m3 | heat capacity ([2]; 311 K): 1843000 ± 98000 J/K/m3 | heat capacity ([2]; 312.1 K): 1839000 ± 98000 J/K/m3 | heat capacity ([2]; 313 K): 1837000 ± 98000 J/K/m3 | heat capacity ([2]; 315 K): 1830000 ± 98000 J/K/m3 | heat capacity ([2]; 316 K): 1827000 ± 98000 J/K/m3 | heat capacity ([2]; 317 K): 1825000 ± 97000 J/K/m3 | heat capacity ([2]; 318 K): 1824000 ± 97000 J/K/m3 | heat capacity ([2]; 319.01 K): 1821000 ± 97000 J/K/m3 | heat capacity ([2]; 320 K): 1819000 ± 97000 J/K/m3 | heat capacity ([2]; 321 K): 1817000 ± 97000 J/K/m3 | heat capacity ([2]; 322 K): 1815000 ± 97000 J/K/m3 | heat capacity ([2]; 323 K): 1816000 ± 97000 J/K/m3 | heat capacity ([2]; 324 K): 1813000 ± 97000 J/K/m3 | heat capacity ([2]; 325 K): 1812000 ± 97000 J/K/m3 | heat capacity ([2]; 326 K): 1810000 ± 97000 J/K/m3 | heat capacity ([2]; 327 K): 1809000 ± 97000 J/K/m3 | heat capacity ([2]; 328 K): 1809000 ± 97000 J/K/m3 | heat capacity ([2]; 329 K): 1808000 ± 97000 J/K/m3 | heat capacity ([2]; 330 K): 1806000 ± 96000 J/K/m3 | heat capacity ([2]; 331 K): 1805000 ± 96000 J/K/m3 | heat capacity ([2]; 332 K): 1805000 ± 96000 J/K/m3 | heat capacity ([2]; 333 K): 1804000 ± 96000 J/K/m3 | heat capacity ([2]; 334 K): 1802000 ± 96000 J/K/m3 | heat capacity ([2]; 335 K): 1801000 ± 96000 J/K/m3 | heat capacity ([2]; 336 K): 1802000 ± 96000 J/K/m3 | heat capacity ([2]; 337 K): 1801000 ± 96000 J/K/m3 | heat capacity ([2]; 338 K): 1798000 ± 96000 J/K/m3 | heat capacity ([2]; 339 K): 1797000 ± 96000 J/K/m3 | heat capacity ([2]; 340 K): 1799000 ± 96000 J/K/m3 | heat capacity ([2]; 341.01 K): 1798000 ± 96000 J/K/m3 | heat capacity ([2]; 342 K): 1799000 ± 96000 J/K/m3
